Read-outs that look alike come from different tables or passages of the source. One block for each compound: values may come before it.
How the values were obtained:
[1] = system: concanavalin A-stimulated normal lymphocytes; test: proliferation of concanavalin A-stimulated normal lymphocytes; assay type: cell-based
[2] = system: C-3 fibrosarcoma cells; test: tumor promotion in mice injected with C-3 fibrosarcoma cells; assay type: in vivo, C3H mice; conditions: for tumor growth: C-3 fibrosarcoma, FIG. 7, FIG. 9; for animals with tumors by day 5: n=10 per group, no controls had tumors
Description: The experiments were blinded so that the individual measuring the first appearance of palpable tumor was unaware of the treatment group (saline control vs antidepressant drug; n=10 in each group),

[3] = system: PMA-induced inflammation in skin; test: PMA-induced skin inflammation in DBA/2 mice; assay type: in vivo
Procedure: To investigate any effect of DPPE to increase PMA-induced inflammation in the same strain of mice (DBA/2), groups of 3 animals were shaved over the back and 48 hours later received a single topical application of […] PMA in acetone. The PMA-treated mice then received either saline (control) or DPPE (4 or 32 mg/kg at time 0 and 24 hours). Three animals painted with acetone served as vehicle controls. Forty-eight hours later, the various groups were sacrificed by CO2 asphyxiation, the skin carefully excised, pinned to paper strips to prevent, wrinkling, and immersed in formaldehyde. H and E-stained sections of skin were assessed for degree of inflammation.
Indeed, since tumor promotion requires the presence of inflammatory response, and can be blocked by agents which inhibit inflammation by definition, DPPE functions as a co-promoter with PMA.

[4] = clinically relevant doses to enhance chemotherapy, about 0.2-12 mg/kg; cited from earlier work
[5] = system: MCF-7 human breast cancer cells; conditions: MCF7, 168 h, read-out: IC50 value, inhibit/kill growth of MCF-7 cells
[6] = system: L5178Y lymphoma cells; test: tumor-promoting effect in DBA/2 mice inoculated subcutaneously with L5178Y lymphoma cells; assay type: in vivo
Description: A second group of 7 tumor cell-inoculated mice served as controls (saline injections, once daily×1). By day 14, 7/7 DPPE treated animals had palpable tumors as compared to 4/7 controls. At the end of 4 weeks, 6/7 controls had tumors with an aggregate surface area of 14.5 cm^2 (mean=2.1±0.8 cm^2 /animal), while 7/7 DPPE-treated animals had tumors with an aggregate surface area of 38.4 cm^2 (mean=5.5±0.7 cm^2 /animal). Thus, the tumor burden of DPPE-treatedanimals was approximately 2.5-fold greater than that of controls.

[7] = system: rat uterus; conditions: cited from earlier work
[8] = target: HIC; test: competition for 3H-histamine binding to HIC in brain membranes; set-up: species or system rat; conditions: for Ki: rat cortical membranes
[9] = system: phorbol myristate acetate (PMA)-induced platelet aggregation; test: PMA-induced platelet aggregation; assay type: cell-based; conditions: for IC50: Platelet, read-out: IC50, antagonism of PMA-induced platelet aggregation
[10] = target: ^3 H-DPPE binding (HIC) in rat liver microsomes; test: competition for 3H-DPPE binding in liver microsomes
[11] = system: HIC; test: inhibition of histamine binding to HIC in microsomes; set-up: species or system rat
[12] = 1 mg/kg s.c. once daily x3, end of 4 weeks

SMILES: CCOC(=O)N1CCC(=C2c3ccc(Cl)cc3CCc3cccnc32)CC1 [loratidine]
- inhibition of lymphocyte proliferation / mitogenesis [1]: inhibited concanavalin A-stimulated mitogenesis
- tumor growth [2]: potently promoted tumor growth

SMILES: CCN(CC)CCOc1ccc(Cc2ccccc2)cc1 [DPPE, N,N-diethyl-2-[4-(phenylmethyl)-phenoxy] ethanamine]
- inhibition of lymphocyte proliferation / mitogenesis [1]: inhibit
- inflammatory response to PMA, high dose ([3]; 32 mg/kg (128 mg/M^2)): most intense inflammatory response
- mitotic activity in the epithelial layer ([3]; 32 mg/kg, versus PMA and saline-treated groups): increased mitotic activity
- inflammatory response to PMA ([3]; 4 or 32 mg/kg at time 0 and 24 hours, skin assessed at 48 hours, versus saline or acetone controls): significantly greater inflammatory response
- serious toxic effects in humans [4]: does not cause serious toxic effects
- IC50 [5]: 6.5 µM
- animals with palpable tumors by day 14 ([6]; 1 mg/kg (4 mg/M^2) s.c. once daily x3, day 14, n=7): 7/7
- animals with tumors at the end of 4 weeks ([6]; 1 mg/kg s.c. once daily x3, 4 weeks, n=7): 7/7
- aggregate tumor surface area [6, 12]: 38.4 cm^2
- mean tumor surface area per animal [6, 12]: 5.5±0.7 cm^2 /animal
- tumor burden relative to controls ([6]; end of 4 weeks, versus saline controls): approximately 2.5 fold
- antiestrogenic activity in vivo [7]: antiestrogenic in vivo
- effect on tamoxifen action in the rat uterus in vivo [7]: augment the effects of tamoxifen
- Ki [8]: 0.9 µM
- IC50 [9]: 80 µM
- Kd ([10]; ^3 H-DPPE binding in liver microsomes): 0.065 µM

- potency relative to DPPE in inhibiting histamine binding at HIC ([8]; brain membranes): approximately three times more potent
- potency relative to DPPE in HIC binding competition assays ([8]; inhibiting normal cell proliferation and promoting malignant cell proliferation): two to four times that of DPPE
- Ki [8]: 0.3 µM
- IC50 [9]: 20 µM
- Ki ([10]; rat liver microsomes, read-out: KI value, competition for [^3 H] DPPE binding): ~0.07 µM
SMILES: CCN(CC)CCOc1ccc(C(=O)c2ccc(F)cc2)cc1 [DFPE, N,N=diethyl-2-[4-(4'-fluorophenone)phenoxy] ethanamine]
- IC50 [5]: 3 µM
- potency relative to DPPE in antagonizing PMA-induced platelet aggregation [9]: approximately four times more potent

- Ki ([10]; liver microsomes, FIG. 2, read-out: K1 to compete for ^3 H-DPPE binding): 10 µM
SMILES: CN(C)CCC=C1c2ccccc2CCc2ccccc21 [amitriptyline]
- IC50 ([1]; Lymphocyte, in the absence of cytotoxicity, FIG. 5, read-out: IC50, inhibition of proliferation): 10 to 20 µM
- animals with tumors by day 5 [2]: 4/10

- inhibition of histamine binding to HIC [11]: potent to inhibit histamine binding
SMILES: COc1ccc(CCN2CCC(Nc3nc4ccccc4n3Cc3ccc(F)cc3)CC2)cc1 [Astemizole]
- inhibition of lymphocyte proliferation / mitogenesis [1]: potent to inhibit
- tumor growth [2]: potently stimulate the growth

SMILES: CNCCC(Oc1ccc(C(F)(F)F)cc1)c1ccccc1 (stereo not shown) [fluoxetine]
- animals with tumors by day 5 [2]: 4/10

SMILES: CC(C)NC[C@H](O)COc1cccc2ccccc12 (racemic) [propanolol]
- inhibition of lymphocyte proliferation / mitogenesis [1]: inhibits normal lymphocyte mitogenesis
- tumor weight on Day 23 ([2]; C-3 fibrosarcoma murine model, FIG. 7): significantly increased tumor weight
